Test results as given in PMC11316798, “Signaling by a bacterial phytochrome histidine kinase involves a conformational cascade reorganizing the dimeric photoreceptor” (Nature Communications, 2024).

T1: PsBphP1 (Pseudomonas syringae group genomosp. 3, UniProt Q885D3)
T1 construct: gene bphP
T1 sequence (Q885D3 1-745): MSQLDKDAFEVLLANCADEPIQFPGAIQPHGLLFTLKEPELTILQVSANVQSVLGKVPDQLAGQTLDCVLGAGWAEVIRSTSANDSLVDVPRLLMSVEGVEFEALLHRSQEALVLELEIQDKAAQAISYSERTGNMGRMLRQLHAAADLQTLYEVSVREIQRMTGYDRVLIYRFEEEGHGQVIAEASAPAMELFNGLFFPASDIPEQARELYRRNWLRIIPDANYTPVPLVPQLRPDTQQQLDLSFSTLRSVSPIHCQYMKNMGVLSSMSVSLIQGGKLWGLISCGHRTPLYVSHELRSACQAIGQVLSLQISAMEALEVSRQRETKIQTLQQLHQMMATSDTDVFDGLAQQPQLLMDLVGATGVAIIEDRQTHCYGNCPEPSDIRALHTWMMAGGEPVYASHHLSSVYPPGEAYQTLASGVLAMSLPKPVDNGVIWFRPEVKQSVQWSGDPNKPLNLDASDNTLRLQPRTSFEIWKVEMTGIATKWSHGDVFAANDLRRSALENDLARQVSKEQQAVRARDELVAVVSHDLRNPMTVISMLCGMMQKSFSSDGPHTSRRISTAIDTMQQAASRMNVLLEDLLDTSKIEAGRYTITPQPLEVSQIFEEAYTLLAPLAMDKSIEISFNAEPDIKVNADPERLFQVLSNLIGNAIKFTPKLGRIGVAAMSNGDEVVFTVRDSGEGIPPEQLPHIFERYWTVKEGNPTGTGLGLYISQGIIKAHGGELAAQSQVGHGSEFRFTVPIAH


How the values were obtained:
[1] = target: T2, PsAlgB (mixed with PsBphP1) (Pseudomonas syringae group genomosp. 3, UniProt Q88AQ2); settings: 1.5 mM ATP, 5 mM MgCl2, pH 7.5, 22 °C, 175 mM KSCN; needs PsBphP1 (Pr or Pfr); authors presume the ATPase is intrinsic to PsAlgB
T2 construct: gene algB

[2] = target: T1, PsBphP1; settings: labelled compound; Pfr under red light; 150 uM ATP, 5 mM MgCl2, pH 7.5, 22 °C; phosphoacceptor His530
[3] = target: the molecule itself; test: cryo-EM structure; PsBphP1 as Pr (dark-adapted), 0.5 mg/mL, 175 mM KSCN, 10 mM 2-mercaptoethanol, 10 mM HEPES-NaOH pH 7.5; head-to-head dimer
[4] = target: the molecule itself; test: cryo-EM structure; PsBphP1 as Pfr (irradiated 10 min with 630-nm LED), 0.5 mg/mL, 175 mM KSCN, 10 mM 2-mercaptoethanol, 10 mM HEPES-NaOH pH 7.5; dimers (medial, splayed) and tetrameric dimer-of-dimers

T2 sequence (Q88AQ2 whole entry, one chain of several): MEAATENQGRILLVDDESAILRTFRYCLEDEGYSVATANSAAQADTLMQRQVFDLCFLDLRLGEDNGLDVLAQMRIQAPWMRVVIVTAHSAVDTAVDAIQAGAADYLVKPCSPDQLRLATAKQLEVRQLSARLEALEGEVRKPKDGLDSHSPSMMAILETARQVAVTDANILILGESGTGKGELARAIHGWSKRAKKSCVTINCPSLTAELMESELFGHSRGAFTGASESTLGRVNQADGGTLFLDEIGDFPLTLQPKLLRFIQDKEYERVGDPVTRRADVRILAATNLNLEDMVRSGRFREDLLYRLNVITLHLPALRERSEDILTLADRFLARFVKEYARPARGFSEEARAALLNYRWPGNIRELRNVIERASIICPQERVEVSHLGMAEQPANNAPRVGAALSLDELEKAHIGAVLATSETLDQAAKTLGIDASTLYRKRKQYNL

Molecule | SEC elution shift of ATP to ADP [1] | autophosphorylation with 32P-ATP, SDS-PAGE and phosphorimaging [2] | stoichiometry N [3] | stoichiometry N [4]
Nc1ncnc2c1ncn2[C@@H]1O[C@H](COP(=O)(O)OP(=O)(O)OP(=O)(O)O)[C@@H](O)[C@H]1O [ATP] | the two proteins together elicited robust ATPase activity for PsAlgB | initial autophosphorylation of PsBphP1 required the predicted internal phosphoacceptor His530 |  | 
Pseudomonas syringae bacteriophytochrome photoreceptor BphP1 (PsBphP1), full length, assembled with biliverdin (natural protein, biliverdin (BV) covalently linked via a thioether linkage to Cys16, PsBphP1, bacteriophytochrome histidine kinase of Pseudomonas syringae, full-length polypeptide, residues 1-745; One molecule for both light states: Pr (dark-adapted) and Pfr (red-light irradiated, ~80% Pfr); the state is named in each assay; Dimer as Pr; dimer-tetramer (dimer-of-dimers) equilibrium as Pfr; also called P. syringae BphP1; P. syringae BphP; not shown: His6, N-terminal, cleaved) GMSQLDKDAFEVLLANCADEPIQFPGAIQPHGLLFTLKEPELTILQVSANVQSVLGKVPDQLAGQTLDCVLGAGWAEVIRSTSANDSLVDVPRLLMSVEGVEFEALLHRSQEALVLELEIQDKAAQAISYSERTGNMGRMLRQLHAAADLQTLYEVSVREIQRMTGYDRVLIYRFEEEGHGQVIAEASAPAMELFNGLFFPASDIPEQARELYRRNWLRIIPDANYTPVPLVPQLRPDTQQQLDLSFSTLRSVSPIHCQYMKNMGVLSSMSVSLIQGGKLWGLISCGHRTPLYVSHELRSACQAIGQVLSLQISAMEALEVSRQRETKIQTLQQLHQMMATSDTDVFDGLAQQPQLLMDLVGATGVAIIEDRQTHCYGNCPEPSDIRALHTWMMAGGEPVYASHHLSSVYPPGEAYQTLASGVLAMSLPKPVDNGVIWFRPEVKQSVQWSGDPNKPLNLDASDNTLRLQPRTSFEIWKVEMTGIATKWSHGDVFAANDLRRSALENDLARQVSKEQQAVRARDELVAVVSHDLRNPMTVISMLCGMMQKSFSSDGPHTSRRISTAIDTMQQAASRMNVLLEDLLDTSKIEAGRYTITPQPLEVSQIFEEAYTLLAPLAMDKSIEISFNAEPDIKVNADPERLFQVLSNLIGNAIKFTPKLGRIGVAAMSNGDEVVFTVRDSGEGIPPEQLPHIFERYWTVKEGNPTGTGLGLYISQGIIKAHGGELAAQSQVGHGSEFRFTVPIAH |  |  | 2 | 4
